Measurements as given in patent US9505786B2, “Substituted annulated triazines and use thereof” (BAYER INTELLECTUAL PROPERTY GMBH, priority 2012, dated 2016).

Columns and labels:
[1] = tested on: recombinant guanylate cyclase reporter cell line; assay: Effect on a recombinant guanylate cyclase reporter cell line; type: cell-based
Method: B-2. Effect on a Recombinant Guanylate Cyclase Reporter Cell Line
The cellular activity of the compounds according to the invention is determined using a recombinant guanylate cyclase reporter cell line, as described in F. Wunder et al., Anal. Biochem. 339, 104-112 (2005).

[2] = target: human phosphodiesterase 5 (PDE 5) (Homo sapiens (Human), UniProt O76074); assay: Inhibition of human phosphodiesterase 5 (PDE 5), SPA assay; type: biochemical; conditions: PDE 5 preparation from human platelets, [8-3H] cGMP substrate
Method: B-6. Inhibition of Human Phosphodiesterase 5 (PDE 5)
PDE 5 preparations are obtained from human platelets by disruption (Microfluidizer®, 800 bar, 3 passes), followed by centrifugation (75 000 g, 60 min, 4° C.) and ion exchange chromatography of the supernatant on a Mono Q 10/10 column (linear sodium chloride gradient, elution with a 0.2-0.3M solution of sodium chloride in buffer (20 mM Hepes pH 7.2, 2 mM magnesium chloride). Fractions having PDE 5 activity are combined (PDE 5 preparation) and stored at −80° C.
To determine their in vitro action on human PDE 5, the test substances are dissolved in 100% DMSO and serially diluted. Typically, dilution series (1:3) from 200 μM to 0.091 μM are prepared (resulting final concentrations in the test: 4 μM to 0.0018 μM). In each case 2 μl of the diluted substance solutions are placed into the wells of microtitre plates (Isoplate-96/200W; Perkin Elmer). Subsequently, 50 μl of a dilution of the above-described PDE 5 preparation are added. The dilution of the PDE 5 preparation is chosen such that during the later incubation less than 70% of the substrate are converted (typical dilution: 1:100; dilution buffer: 50 mM Tris/hydrochloric acid pH 7.5, 8.3 mM magnesium chloride, 1.7 mM EDTA, 0.2% BSA). The substrate, [8-^3H] cyclic guanosine-3′,5′-monophosphate (1 μCi/μl; Perkin Elmer) is diluted 1:2000 with assay buffer (50 mM tris/hydrochloric acid pH 7.5, 8.3 mM magnesium chloride, 1.7 mM EDTA) to a concentration of 0.0005 μCi/μl. By addition of 50 μl (0.025 μCi) of the diluted substrate, the enzyme reaction is finally started. The test mixtures are incubated at room temperature for 60 min and the reaction is stopped by adding 25 μl of a suspension of 18 mg/ml yttrium scintillation proximity beads in water (phosphodiesterase beads for SPA assays, RPNQ 0150, Perkin Elmer). The microtitre plates are sealed with a film and left to stand at room temperature for 60 min. Subsequently, the plates are analysed for 30 s per well in a Microbeta scintillation counter (Perkin Elmer). IC50 values are determined using the graphic plot of the substance concentration against percentage PDE 5 inhibition.

| Compound | IC50 [2] | MEC (minimum effective concentration) [1] |
| --- | --- | --- |
| CC1(CC2CC2)C(=O)Nc2nc(-c3nn(Cc4ccccc4F)c4ncc(F)cc34)nnc21 (racemic) [Example 5-1, 7-(Cyclopropylmethyl)-3-[5-fluoro-1-(2-fluorobenzyl)-1H-pyrazolo[3,4-b]pyridin-3-yl]-7-methyl-5,7-dihydro-6H-pyrrolo[2,3-e][1,2,4]triazin-6-one] | – | 100 nM |
| CC1(CC2CC2)C(=O)Nc2nc(-c3nn(Cc4ccccc4F)c4ncc(F)cc34)nnc21 (racemic) [Example 5-2, 7-(Cyclopropylmethyl)-3-[5-fluoro-1-(2-fluorobenzyl)-1H-pyrazolo[3,4-b]pyridin-3-yl]-7-methyl-5,7-dihydro-6H-pyrrolo[2,3-e][1,2,4]triazin-6-one] | – | 300 nM |
| CCC1(C)C(=O)Nc2nc(-c3nn(Cc4ccccc4F)c4ncc(F)cc34)nnc21 (racemic) [Example 7-1, 7-Ethyl-3-[5-fluoro-1-(2-fluorobenzyl)-1H-pyrazolo[3,4-b]pyridin-3-yl]-7-methyl-5,7-dihydro-6H-pyrrolo[2,3-e][1,2,4]triazin-6-one] | – | 100 nM |
| CCC1(C)C(=O)Nc2nc(-c3nn(Cc4ccccc4F)c4ncc(F)cc34)nnc21 (racemic) [Example 7-2, 7-Ethyl-3-[5-fluoro-1-(2-fluorobenzyl)-1H-pyrazolo[3,4-b]pyridin-3-yl]-7-methyl-5,7-dihydro-6H-pyrrolo[2,3-e][1,2,4]triazin-6-one] | – | 100 nM |
| CCOC(=O)C1(C)CC(=O)Nc2nc(-c3nn(Cc4ccccc4F)c4ncccc34)nnc21 (centres unmarked) [Example 2, Ethyl 3-[1-(2-fluorobenzyl)-1H-pyrazolo[3,4-b]pyridin-3-yl]-8-methyl-6-oxo-5,6,7,8-tetrahydropyrido[2,3-e][1,2,4]triazine-8-carboxylate] | 490 nM | 300 nM |
| COc1ccc(Cn2nc(-c3nnc4c(n3)NC(=O)C4(C)C)c3cc(F)cnc32)cc1 [Example 8, 3-[5-Fluoro-1-(4-methoxybenzyl)-1H-pyrazolo[3,4-b]pyridin-3-yl]-7,7-dimethyl-5,7-dihydro-6H-pyrrolo[2,3-e][1,2,4]triazin-6-one] | 150 nM | 3000 nM |
| CC(C)(C)OC(=O)C#Cc1nc(-c2nn(Cc3ccccc3F)c3ncccc23)nc2c1C(C)(C)C(=O)N2 [Example 50, tert-Butyl 3-{2-[1-(2-fluorobenzyl)-1H-pyrazolo[3,4-b]pyridin-3-yl]-5,5-dimethyl-6-oxo-6,7-dihydro-5H-pyrrolo[2,3-d]pyrimidin-4-yl}prop-2-ynoate] | – | 300 nM |
| CC1(C)C(=O)Nc2nc(-c3nn(Cc4ccccc4F)c4ncc(F)cc34)nc(CNC(=O)C3CC3)c21 [Example 56, N-({2-[5-Fluoro-1-(2-fluorobenzyl)-1H-pyrazolo[3,4-b]pyridin-3-yl]-5,5-dimethyl-6-oxo-6,7-dihydro-5H-pyrrolo[2,3-d]pyrimidin-4-yl}methyl)cyclopropanecarboxamide] | – | 30 nM |
| CC(C)(O)CCc1nc(-c2nn(Cc3ccccc3F)c3ncccc23)nc2c1C(C)(C)C(=O)N2 [Example 59, 2-[1-(2-Fluorobenzyl)-1H-pyrazolo[3,4-b]pyridin-3-yl]-4-(3-hydroxy-3-methylbutyl)-5,5-dimethyl-5,7-dihydro-6H-pyrrolo[2,3-d]pyrimidin-6-one] | – | 300 nM |
| CC1(C)C(=O)Nc2nc(-c3nn(Cc4ccccc4F)c4ncccc34)nc(Cl)c21 [Example 60, 4-Chloro-2-[1-(2-fluorobenzyl)-1H-pyrazolo[3,4-b]pyridin-3-yl]-5,5-dimethyl-5,7-dihydro-6H-pyrrolo[2,3-d]pyrimidin-6-one] | – | 300 nM |
| CC1(C)C(=O)Nc2nc(-c3nn(Cc4ccccc4F)c4ncccc34)nc(C#CC(=O)O)c21 [Example 62, 3-{2-[1-(2-Fluorobenzyl)-1H-pyrazolo[3,4-b]pyridin-3-yl]-5,5-dimethyl-6-oxo-6,7-dihydro-5H-pyrrolo[2,3-d]pyrimidin-4-yl}prop-2-ynoic acid] | – | 30 nM |

Now from value to compound, other results behind:

| IC50 [2] | Compound | MEC (minimum effective concentration) [1] |
| --- | --- | --- |
| 140 nM | C=CCCC1(C)C(=O)Nc2nc(-c3nn(Cc4ccccc4F)c4ncccc34)nnc21 (racemic) [Example 23, (rac) (7S)-7-(But-3-en-1-yl)-3-[1-(2-fluorobenzyl)-1H-pyrazolo[3,4-b]pyridin-3-yl]-7-methyl-5,7-dihydro-6H-pyrrolo[2,3-e][1,2,4]triazin-6-one] | 30 nM |
| 1500 nM | CCOC(=O)C1C(=O)Nc2nc(-c3nn(Cc4ccccc4F)c4ncccc34)nnc21 (racemic) [Example 25, (rac) Ethyl 3-[1-(2-fluorobenzyl)-1H-pyrazolo[3,4-b]pyridin-3-yl]-6-oxo-6,7-dihydro-5H-pyrrolo[2,3-e][1,2,4]triazine-7-carboxylate] | 100 nM |
| 3400 nM | CC1(CC(=O)O)C(=O)Nc2nc(-c3nn(Cc4ccccc4F)c4ncccc34)nnc21 (racemic) [Example 26, (rac) {3-[1-(2-Fluorobenzyl)-1H-pyrazolo[3,4-b]pyridin-3-yl]-7-methyl-6-oxo-6,7-dihydro-5H-pyrrolo[2,3-e][1,2,4]triazin-7-yl}acetic acid] | 300 nM |
| 870 nM | CCOC(=O)C1(C)C(=O)Nc2nc(-c3nn(Cc4ccccc4F)c4ncccc34)ncc21 (racemic) [Example 33, (rac) Ethyl 2-[1-(2-fluorobenzyl)-1H-pyrazolo[3,4-b]pyridin-3-yl]-5-methyl-6-oxo-6,7-dihydro-5H-pyrrolo[2,3-d]pyrimidine-5-carboxylate] | 10 nM |
| 4000 nM | CC1(C(=O)NC2CC2)C(=O)Nc2nc(-c3nn(CCC(F)(F)F)c4ncccc34)ncc21 (racemic) [Example 49, (rac) N-Cyclopropyl-5-methyl-6-oxo-2-[1-(3,3,3-trifluoropropyl)-1H-pyrazolo[3,4-b]pyridin-3-yl]-6,7-dihydro-5H-pyrrolo[2,3-d]pyrimidine-5-carboxamide] | 300 nM |
| 3900 nM | CC1(CC(=O)O)C(=O)Nc2nc(-c3nn(Cc4ccccc4F)c4ncc(F)cc34)nnc21 (racemic) [Example 52, (rac){3-[5-Fluoro-1-(2-fluorobenzyl)-1H-pyrazolo[3,4-b]pyridin-3-yl]-7-methyl-6-oxo-6,7-dihydro-5H-pyrrolo[2,3-e][1,2,4]triazin-7-yl}acetic acid] | 1000 nM |
| 38 nM | CC1(C)C(=O)Nc2nc(-c3nn(Cc4ccccc4F)c4nc(C(F)(F)F)ccc34)nnc21 [Example 19, 3-[1-(2-Fluorobenzyl)-6-(trifluoromethyl)-1H-pyrazolo[3,4-b]pyridin-3-yl]-7,7-dimethyl-5,7-dihydro-6H-pyrrolo[2,3-e][1,2,4]triazin-6-one] | 1000 nM |
| 22 nM | Cc1nc2c(cc1F)c(-c1nnc3c(n1)NC(=O)C3(C)C)nn2Cc1ccccc1F [Example 21, 3-[5-Fluoro-1-(2-fluorobenzyl)-6-methyl-1H-pyrazolo[3,4-b]pyridin-3-yl]-7,7-dimethyl-5,7-dihydro-6H-pyrrolo[2,3-e][1,2,4]triazin-6-one] | 30 nM |
| 130 nM | Cc1nc(-c2nn(Cc3ccccc3F)c3ncccc23)nc2c1C(C)(C)C(=O)N2 [Example 22, 2-[1-(2-Fluorobenzyl)-1H-pyrazolo[3,4-b]pyridin-3-yl]-4,5,5-trimethyl-5,7-dihydro-6H-pyrrolo[2,3-d]pyrimidin-6-one] | 100 nM |
| 48 nM | CC1(C)C(=O)Nc2nc(-c3nn(Cc4ccccc4F)c4ncccc34)nc(CNS(C)(=O)=O)c21 [Example 24, N-({2-[1-(2-Fluorobenzyl)-1H-pyrazolo[3,4-b]pyridin-3-yl]-5,5-dimethyl-6-oxo-6,7-dihydro-5H-pyrrolo[2,3-d]pyrimidin-4-yl}methyl)methanesulphonamide] | 30 nM |
| 215 nM | CCOC(=O)/C=C/c1nc(-c2nn(Cc3ccccc3F)c3ncccc23)nc2c1C(C)(C)C(=O)N2 [Example 27, Ethyl 3-{2-[1-(2-fluorobenzyl)-1H-pyrazolo[3,4-b]pyridin-3-yl]-5,5-dimethyl-6-oxo-6,7-dihydro-5H-pyrrolo[2,3-d]pyrimidin-4-yl}acrylate] | 300 nM |
